biological target: T1, indoleamine 2,3-dioxygenase (IDO) (Homo sapiens, UniProt P14902); assay: HeLa cell-based indoleamine 2,3-dioxygenase (IDO) assay, kynurenine production; details: HeLa cells, IFNγ 25 ng/mL, 48 hour incubation; read-out: IDO Hela IC50
T1 construct: replaced with media containing IFNγ (#285-IF/CF, R&D Systems) at a final concentration of 25 ng/mL; endogenous in cells; host or cells: HeLa (ATCC CCL-2), IFN-gamma stimulated
Description: Assessment of Inhibitor Activity in HeLa Cell-Based Indoleamine 23-Dioxygenase (IDO) Assay
Cells were maintained in a humidified incubator at 37° C. in 5% CO2.
IDO activity was assessed as a function of kynurenine production as follows: HeLa cells were seeded in a 96-well culture plate at a density of 5,000 cells/well and allowed to equilibrate overnight. […] A serial dilution of each test compound was added to the cells in a total volume of 200 μL of culture medium. After a further 48 hour incubation, 170 μL of supernatant was transferred from each well to a fresh 96-well plate. 12.1 μL of 6.1N trichloroacetic acid (#T0699, Sigma-Aldrich) was added to each well and mixed, followed by incubation at 65° C. for 20 minutes to hydrolyze N-formylkynurenine, the product of indoleamine 2,3-dioxygenase, to kynurenine. The reaction mixture was then centrifuged for 10 mins at 500×g to sediment the precipitate. 100 μL of the supernatant was transferred from each well to a fresh 96-well plate. […] Kynurenine concentrations were determined by measuring absorbance at 480 nm and calibrating against an L-kynurenine (#K8625, Sigma-Aldrich) standard curve using a SPECTRAMAX® M2e microplate reader (Molecular Devices). The percentage activity at each inhibitor concentration was determined and IC50 values assessed using nonlinear regression.

T1 sequence (P14902 whole entry): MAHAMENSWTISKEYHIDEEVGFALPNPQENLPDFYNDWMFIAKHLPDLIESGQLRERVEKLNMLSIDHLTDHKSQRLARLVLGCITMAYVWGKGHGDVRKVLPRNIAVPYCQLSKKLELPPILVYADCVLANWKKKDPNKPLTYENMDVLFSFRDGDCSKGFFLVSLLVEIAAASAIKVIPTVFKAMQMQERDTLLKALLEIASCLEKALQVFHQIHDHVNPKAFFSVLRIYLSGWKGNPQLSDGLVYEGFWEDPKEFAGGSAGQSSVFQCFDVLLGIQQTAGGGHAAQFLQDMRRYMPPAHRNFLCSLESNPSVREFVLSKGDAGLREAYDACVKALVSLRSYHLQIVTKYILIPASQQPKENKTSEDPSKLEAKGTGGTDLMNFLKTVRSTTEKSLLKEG

IC50 | Structure (SMILES)
310 nM | CC[C@H](CC(=O)O)c1ccc([C@@H](CC)C2CCOCC2)c(Nc2ccc(COC)nc2)c1 (single isomer, unassigned) [Example 129]
10 nM | CCO[C@@H](c1ccc([C@@H](COC)CC(=O)O)cc1Nc1ccc(Cl)cc1)C(F)(F)F (single isomer, unassigned) [Example 79]
90 nM | CC[C@@H](CC(=O)O)c1ccc([C@@H](CC)N2CCOCC2)c(Nc2cnc(C(F)(F)F)nc2)c1 (relative stereo) [Example 130, (S)-3-(4-((R)-1-morpholinopropyl)-3-((2-(trifluoromethyl)pyrimidin-5-yl)amino)phenyl)pentanoic acid]
10 nM | CCO[C@@H](c1ccc([C@H](COC)CC(=O)O)cc1Nc1ccc(Cl)cc1)C(F)(F)F (single isomer, unassigned) [Example 72]
750 nM | CCOc1ncc(Nc2cc([C@@H](CC)CC(=O)O)ccc2[C@H](CC)N2CCOCC2)cn1 (single isomer, unassigned) [Example 118-1]
30 nM | CCO[C@@H](c1ccc([C@@H](COC)CC(=O)O)cc1Nc1ccc(C#N)c(F)c1)C(F)(F)F (single isomer, unassigned) [Example 77]
100 nM | CCO[C@H](c1ccc([C@H](COC)CC(=O)O)cc1Nc1cnc(OC)nc1)C(F)(F)F (relative stereo) [Example 54, 3-(4-(1-ethoxy-2,2,2-trifluoroethyl)-3-((2-methoxypyrimidin-5-yl)amino)phenyl)-4-methoxybutanoic Acid]
890 nM | CCc1ncc(Nc2cc([C@@H](COC)CC(=O)O)ccc2[C@H](CC)N2CCOCC2)cn1 (relative stereo) [Example 102, (S)-3-(3-((2-ethylpyrimidin-5-yl)amino)-4-((S)-1-morpholinopropyl)phenyl)-4-methoxybutanoic acid]
40 nM | CCOc1ncc(Nc2cc([C@H](CC)CC(=O)O)ccc2[C@@H](CC)C2CCOCC2)cn1 (single isomer, unassigned) [Example 125-1]

Continued, compound first:

Structure (SMILES) | IC50
CCO[C@@H](c1ccc([C@@H](CC)CC(=O)O)cc1NC(=O)Nc1ccc(C)cc1)C(F)(F)F (single isomer, unassigned) [Example 41] | 20 nM
CCO[C@H](c1ccc([C@@H](CC)CC(=O)O)cc1Nc1cnc(OC)nc1)C(F)(F)F (single isomer, unassigned) [Example 22] | 10 nM
CCO[C@H](c1ccc([C@H](CC)CC(=O)O)cc1Nc1cnc(OC)cn1)C(F)(F)F (single isomer, unassigned) [Example 14] | 10 nM
CC[C@@H](CC(=O)O)c1ccc([C@H](OC)C(F)(F)F)c(Nc2cnc(C)nc2)c1 (single isomer, unassigned) [Example 98] | 150 nM
CCOc1cnc(Nc2cc([C@H](CC)CC(=O)O)ccc2[C@@H](OCC)C(F)(F)F)cn1 (single isomer, unassigned) [Example 13] | 10 nM
CCOc1ncc(Nc2cc([C@H](CC)CC(=O)O)ccc2[C@@H](OCC)C(F)(F)F)cn1 (single isomer, unassigned) [Example 12] | 20 nM
CCO[C@H](c1ccc([C@@H](CC)CC(=O)O)cc1Nc1cnc(OC)cn1)C(F)(F)F (single isomer, unassigned) [Example 25] | 10 nM
CCO[C@@H](c1ccc([C@H](CC)CC(=O)O)cc1Nc1cnc(CC)nc1)C(F)(F)F (single isomer, unassigned) [Example 40] | 20 nM
CCO[C@H](c1ccc([C@H](CC)CC(=O)O)cc1Nc1cnc(COC)nc1)C(F)(F)F (single isomer, unassigned) [Example 16] | 610 nM
CCOc1ncc(Nc2cc([C@@H](CC)CC(=O)O)ccc2[C@H](OC)C(F)(F)F)cn1 (single isomer, unassigned) [Example 99] | 30 nM
CC[C@H](CC(=O)O)c1ccc([C@@H](OC)C(F)(F)F)c(Nc2cnc(C(F)(F)F)nc2)c1 (single isomer, unassigned) [Example 92] | 10 nM
CCO[C@H](c1ccc([C@H](CC)CC(=O)O)cc1NC(=O)Nc1ccc(C)cc1)C(F)(F)F (single isomer, unassigned) [Example 7] | 60 nM
CCO[C@H](c1ccc([C@H](CC)CC(=O)O)cc1Nc1cnc(C)nc1)C(F)(F)F (relative stereo) [Example 17, (R)-3-(4-((R)-1-ethoxy-2,2,2-trifluoroethyl)-3-((2-methylpyrimidin-5-yl)amino)phenyl)pentanoic acid] | 130 nM
CCO[C@@H](c1ccc([C@H](CC)CC(=O)O)cc1NC(=O)Nc1ccc(C)cc1)C(F)(F)F (single isomer, unassigned) [Example 31] | 20 nM
CCO[C@@H](c1ccc([C@H](COC)CC(=O)O)cc1NC(=O)Nc1ccc(Cl)cc1F)C(F)(F)F (single isomer, unassigned) [Example 68] | 240 nM
CCO[C@@H](c1ccc([C@H](CC)CC(=O)O)cc1Nc1cnc(COC)nc1)C(F)(F)F (single isomer, unassigned) [Example 38] | 610 nM
CCO[C@H](c1ccc([C@H](CC)CC(=O)O)cc1Nc1cnc(OC)nc1)C(F)(F)F (single isomer, unassigned) [Example 10] | 20 nM

same assay, conditions: HeLa cells, IFNγ 25 ng/mL, 48 hour incubation; read-out: IDO Hela IC50 class (A < 50, B < 250, C < 2000)

IC50 | Structure (SMILES)
< 50 nM | CCO[C@@H](c1ccc([C@@H](COC)CC(=O)O)cc1Nc1ccc(C#N)cc1)C(F)(F)F (single isomer, unassigned) [Example 80]
50 to 250 nM | CC[C@H](CC(=O)O)c1ccc([C@@H](CC)C2CCOCC2)c(Nc2ccc(COC)nc2)c1 (single isomer, unassigned) [Example 129]
250 to 2000 nM | CCc1ncc(Nc2cc([C@@H](COC)CC(=O)O)ccc2[C@@H](CC)N2CCOCC2)cn1 (relative stereo) [Example 107, (S)-3-(3-((2-ethylpyrimidin-5-yl)amino)-4-((R)-1-morpholinopropyl)phenyl)-4-methoxybutanoic acid]
< 50 nM | CC[C@H](CC(=O)O)c1ccc([C@H](OC)C(F)(F)F)c(Nc2ccc(Cl)cc2)c1 (single isomer, unassigned) [Example 84-1]
< 50 nM | CC[C@H](CC(=O)O)c1ccc([C@@H](CC)N2CCOCC2)c(Nc2ccc(C#N)cc2)c1 (relative stereo) [Example 122, (R)-3-(3-((4-cyanophenyl)amino)-4-((R)-1-morpholinopropyl)phenyl)pentanoic acid]
< 50 nM | CCO[C@H](c1ccc([C@@H](CC)CC(=O)O)cc1Nc1ccc(F)cc1)C(F)(F)F (relative stereo) [Example 30, (S)-3-(4-((R)-1-ethoxy-2,2,2-trifluoroethyl)-3-((4-fluorophenyl)amino)phenyl)pentanoic acid]
< 50 nM | CC[C@@H](CC(=O)O)c1ccc([C@@H](OC)C(F)(F)F)c(Nc2ccc(C#N)cc2)c1 (single isomer, unassigned) [Example 85]
< 50 nM | CC[C@H](CC(=O)O)c1ccc([C@H](OC)C(F)(F)F)c(Nc2ccc(C#N)cc2)c1 (single isomer, unassigned) [Example 93]
< 50 nM | CC[C@@H](c1ccc([C@@H](COC)CC(=O)O)cc1Nc1ccc(C#N)cc1)N1CCOCC1 (single isomer, unassigned) [Example 101-1]
250 to 2000 nM | CC[C@@H](CC(=O)O)c1ccc([C@@H](CC)N2CCOCC2)c(Nc2ccc(COC)nc2)c1 (relative stereo) [Example 131, (S)-3-(3-((6-(methoxymethyl)pyridin-3-yl)amino)-4-((R)-1-morpholinopropyl)phenyl)pentanoic acid]
< 50 nM | CCO[C@@H](c1ccc([C@H](CC)CC(=O)O)cc1Nc1ccc(C#N)cc1)C(F)(F)F (single isomer, unassigned) [Example 37]
250 to 2000 nM | CCO[C@@H](c1ccc([C@@H](COC)CC(=O)O)cc1Nc1cnc(C)nc1)C(F)(F)F [Example 81, (S)-3-(4-((S)-1-ethoxy-2,2,2-trifluoroethyl)-3-((2-methylpyrimidin-5-yl)amino)phenyl)-4-methoxybutanoic Acid]
< 50 nM | CCc1ncc(Nc2cc([C@H](CC)CC(=O)O)ccc2[C@@H](CC)C2CCOCC2)cn1 (single isomer, unassigned) [Example 126-1]
250 to 2000 nM | CC[C@H](c1ccc([C@@H](COC)CC(=O)O)cc1Nc1ccc(F)cc1)N1CCOCC1 (single isomer, unassigned) [Example 111]
250 to 2000 nM | CC[C@@H](c1ccc([C@@H](COC)CC(=O)O)cc1Nc1ccc(COC)nc1)N1CCOCC1 (single isomer, unassigned) [Example 104]
< 50 nM | CC[C@@H](CC(=O)O)c1ccc([C@@H](OC)C(F)(F)F)c(Nc2ccc(Cl)cc2)c1 (single isomer, unassigned) [Example 83-1]

More lines, now with the values behind:

Structure (SMILES) | IC50
CCO[C@H](c1ccc([C@@H](CC)CC(=O)O)cc1Nc1cnc(C)nc1)C(F)(F)F (single isomer, unassigned) [Example 28] | < 50 nM
CCO[C@H](c1ccc([C@@H](COC)CC(=O)O)cc1Nc1ncc(F)cn1)C(F)(F)F (relative stereo) [Example 64, (S)-3-(4-((R)-1-ethoxy-2,2,2-trifluoroethyl)-3-((5-fluoropyrimidin-2-yl)amino)phenyl)-4-methoxybutanoic acid] | 250 to 2000 nM
